Reference: ChEMBL document CHEMBL5614419, “Discovery of novel BCL6-Targeting PROTACs with effective antitumor activities against DLBCL in vitro and in vivo” (Eur J Med Chem, 2024)
Calls of active or inactive are those of the source. No cut-off for these calls is given here.

Experiments:
SUD4 [1] = experiment: Induction of cell cycle arrest in human SU-DHL-4 cells assessed as increase in G1 phase cell population at 1 uM measured after 72 hrs by flow cytometry analysis (reference value: 61.4%); format: functional
DOHH-2 [2] = experiment: Antiproliferative activity against BCL6-dependent human DOHH-2 cells assessed as inhibition in cell growth measured after 6 days by MTS assay; conditions: DOHH-2, 144 h
[3] = AUC (0 to t) in male Sprague-Dawley rat at 20 mg/kg, po measured upto 24 hrs by LC-MS/MS analysis; format: ADME, organism-based; conditions: in vivo
SUD4 [4] = experiment: Induction of apoptosis in human SU-DHL-4 cells at 10 uM; format: functional, cell-based
SUD4 [5] = experiment: Upregulation of p21 protein level in human SU-DHL-4 cells at 5 uM preincubated for 48 hrs followed by compound elution and measured after 72 hrs by Western blot analysis; format: functional, cell-based
SUD4 [6] = experiment: Induction of cell cycle arrest in human SU-DHL-4 cells assessed as increase in G1 phase cell population at 10 uM measured after 72 hrs by flow cytometry analysis (reference value: 61.4%); format: functional
[7] = target: T1, Protein cereblon/B-cell lymphoma 6 protein (Homo sapiens, UniProt Q96SW2+P41182); experiment: PROTAC activity at CRBN/BCL6 in human DOHH-2 cells assessed as induction of BCL6 degradation incubated for 48 hrs by Western blot analysis; format: cell-based
T1 sequence (Q96SW2 whole entry, looked up, other chains not shown): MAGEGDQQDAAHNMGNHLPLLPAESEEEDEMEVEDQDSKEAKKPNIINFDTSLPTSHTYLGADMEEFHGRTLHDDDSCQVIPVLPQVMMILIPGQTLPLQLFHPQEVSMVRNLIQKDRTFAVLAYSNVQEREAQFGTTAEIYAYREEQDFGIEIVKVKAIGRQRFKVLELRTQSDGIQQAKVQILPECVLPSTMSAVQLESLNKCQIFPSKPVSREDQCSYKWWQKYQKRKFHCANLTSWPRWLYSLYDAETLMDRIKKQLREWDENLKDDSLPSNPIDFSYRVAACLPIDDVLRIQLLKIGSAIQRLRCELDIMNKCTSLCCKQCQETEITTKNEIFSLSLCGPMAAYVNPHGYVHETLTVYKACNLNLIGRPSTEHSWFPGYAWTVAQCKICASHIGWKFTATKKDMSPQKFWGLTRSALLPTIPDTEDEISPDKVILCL

[8] = target: T1, Protein cereblon/B-cell lymphoma 6 protein; experiment: PROTAC activity at CRBN/BCL6 in human SU-DHL-4 cells assessed as induction of BCL6 degradation by measuring maximal efficacy incubated for 48 hrs by Western blot analysis relative to control; format: cell-based
SUD4 [9] = experiment: Antiproliferative activity against BCL6-dependent human SU-DHL-4 cells assessed as inhibition of cell growth at 10 uM measured after 6 days by MTT assay relative to control; format: functional; conditions: SU-DHL-4, 144 h, time 6 day
[10] = Tmax in male Sprague-Dawley rat at 20 mg/kg, po measured upto 24 hrs by LC-MS/MS analysis; format: ADME, organism-based; conditions: in vivo
SU-DHL-6 = experiment: Antiproliferative activity against BCL6-dependent human SU-DHL-6 cells assessed as inhibition in cell growth measured after 6 days by MTT assay; conditions: SU-DHL-6, 144 h
[11] = target: T1, Protein cereblon/B-cell lymphoma 6 protein; experiment: PROTAC activity at CRBN/BCL6 in BCL6-dependent human SU-DHL-4 cells assessed as induction of BCL6 degradation by measuring degradation rate at 1 uM incubated for 48 hrs by Western blot analysis relative to control; format: cell-based
DOHH-2 [12] = experiment: Synergistic antiproliferative activity against human DOHH-2 cells assessed as combination index measured after 6 days in presence of Ibrutinib by MTT assay; format: functional; conditions: time 6 day
[13] = Toxicity in female nude nu/nu mouse model xenografted with human SU-DHL-4 cells assessed as body weight loss at 10 to 40 mg/kg, ip measured after 21 days; format: organism-based, SUD4; conditions: in vivo, 504 h, dose 10-40 mg/kg, time 21 day
SUD4 [14] = experiment: Antiproliferative activity against BCL6-dependent human SU-DHL-4 cells assessed as inhibition in cell growth measured after 6 days by MTT assay; conditions: SU-DHL-4, 144 h
SUD4 [15] = experiment: Upregulation of p27 protein level in human SU-DHL-4 cells at 5 uM preincubated for 48 hrs followed by compound elution and measured after 72 hrs by Western blot analysis; format: functional, cell-based
[16] = Resistance index, ratio of IC50 for human DOHH2/Ib cells to IC50 for DOHH2 cells; format: functional
[17] = target: T1, Protein cereblon/B-cell lymphoma 6 protein; experiment: In vivo PROTAC activity at CRBN/BCL6 in female nude nu/nu mouse model xenografted with human SU-DHL-4 cells assessed as increase in p27 protein level in tumor at 40 mg/kg, ip measured after 5 hrs of last dose by Western blot analysis; format: functional, organism-based; conditions: SUD4
[18] = target: T1, Protein cereblon/B-cell lymphoma 6 protein; experiment: PROTAC activity at CRBN/BCL6 in human SU-DHL-4 cells assessed as induction of BCL6 degradation at 5 uM preincubated with MG-132 for 2 hrs followed by compound addition and measured after 36 hrs by Western blot analysis; format: cell-based
[19] = MRT (0 to t) in male Sprague-Dawley rat at 10 mg/kg, ip measured upto 24 hrs by LC-MS/MS analysis; format: ADME, organism-based; conditions: in vivo
SUD4 [20] = experiment: Induction of cell cycle arrest in human SU-DHL-4 cells assessed as G1 phase arrest at 500 nM in presence of Ibrutinib incubated for 72 hrs by flow cytometry; format: functional, cell-based
SUD4 [21] = experiment: Upregulation of p27 protein level in human SU-DHL-4 cells at 5 uM by Western blot analysis; format: functional, cell-based; conditions: time 12-72 hrs, TDE = time-dependent effect

`COc1cc(Nc2nc(N3CCN(CCOCCNc4cccc5c4C(=O)N(C4CCC(=O)NC4=O)C5=O)CC3)ncc2F)ccc1NC(=O)c1ccc(C2=CCCC2)s1` (stereo not drawn) showed an Activity (SUD4 [1]) of 86.7%, an IC50 (DOHH-2 [2]) of 56.2 nM and an AUC(0-t) at 24 h [3] of 2290 ng·h/mL. The Activity (SUD4 [4]) was “inactive”, the Activity (SUD4 [5]) was “Active” and the Activity (SUD4 [6]) was 93.3%. The Activity [7] was “Dose-Dependent Effect”, the DC50 [7] was 558 nM and the Emax [8] was 93%. It also gave an inhibition at 10 µM (SUD4 [9]) of 92.6%, a Tmax [10] of 1 h and an IC50 (SU-DHL-6) of 451 nM. For the same compound, the Activity [11] was 81.8%, the CI (DOHH-2 [12]) was 0.2 and the Activity [13] was “Non-Toxic”. The IC50 (SUD4 [14]) was 399 nM, the Activity (SUD4 [15]) was “Active” and the “Ratio IC50” value [16] was 31.7. The Activity [17] was “Active”, the Activity [18] was “inactive” and the MRT last at 24 h [19] was 5.3 h. For the same compound, the Activity (SUD4 [20]) was “Active” and the Activity (SUD4 [21]) was “Tde”.
